Measured values taken from US10040804B2, “Compounds targeting proteins, compositions, methods, and uses thereof” (BioTheryX, Inc., priority 2016, dated 2018).
Structures can show the parent of a compound that is named as a salt.

Columns and labels:
IL-1β = IL-1β expression in LPS stimulated PBMCs (Meso Scale); type: cell-based, human; details: Homo sapiens, PBMC; for inhibition at 5 µM: compound concentration 5 μM; for inhibition at 10 µM: compound concentration 10 μM
Experimental: FIGS. 5 and 9A are graphs showing IL-1-beta expression in LPS stimulated peripheral blood mononuclear cells (PBMCs), PBMCs were plated in 96-well plates and pretreated with compound (Compound 1-9 individually) for 1 h, and then induced with 100 ng/mL LPS for 18-24 h. Cytokines in the media were measured according to MesoScale protocol. Negative control wells were treated with DMSO. Compound activity is measured as a percentage of LPS-induced activity. “Rev” is lenalidomide.
(§1) Frozen primary blood mononuclear cells (PBMCs) and frozen CD14+ mobilized peripheral blood monocytes were purchased from AllCells. Cells were quick thawed, and washed 1-time with RPMI-1640/10% FBS/1% Penicillin/1% Streptomycin and plated in 96-well plates at 200,000 cells per well. Cells were pretreated with DMSO only, Compound 5013 (lenolidamide) or the indicated compound for 1 h and then induced with 100 ng/mL lipopolysaccharide (LPS) for 18-24 h. The supernatant was analyzed for IL-1 beta, IL-6, and TNF-α using Meso Scale assay according to manufacturer's protocol. The negative control wells were treated with DMSO.
(§2) PBMCs: AllCells PB003F, Normal Peripheral Blood MNC.
(§3) Media: RPMI 1640/10% FBS/1% Pen-Strep.

IL-6 = IL-6 expression in LPS stimulated PBMCs (Meso Scale); type: cell-based, human; details: Homo sapiens, PBMC, LPS-stimulated PBMCs; for inhibition at 5 µM: compound concentration 5 μM; for inhibition at 10 µM: compound concentration 10 μM
Experimental: FIGS. 6 and 9B are graphs showing IL-6 expression in LPS stimulated peripheral blood mononuclear cells (PBMCs). PBMCs were plated in 96-well plates and pretreated with compound (Compound 1-9 individually) for 1 h, and then induced with 100 ng/mL LPS for 18-24 h. Cytokines were measured according to MesoScale protocol. Negative control wells were treated with DMSO. Compound activity was measured as a percentage of LPS-induced activity. “Rev” is lenalidomide.
as §1, §2, §3

TNF-α = TNF-α expression in LPS stimulated PBMCs (Meso Scale); type: cell-based, human; details: Homo sapiens, PBMC; for inhibition at 5 µM: compound concentration 5 μM; for inhibition at 10 µM: compound concentration 10 μM
Experimental: FIGS. 7 and 9C are graphs showing TNF-a expression in LPS stimulated peripheral blood mononuclear cells (PBMCs). PBMCs were plated in 96-well plates and pretreated with compound (Compound 1-9 individually) for 1 h, and then induced with 100 ng/mL LPS for 18-24 h. Cytokines in the media were measured according to MesoScale protocol. The negative control wells were treated with DMSO. Compound activity is measured as a percentage of LPS-induced activity. “Rev” is lenalidomide.
as §1, §2, §3

IL-2 = experiment: anti-CD3-induced IL-2 secretion in PBMCs; type: cell-based; details: Homo sapiens, PBMC, anti-CD3 stimulated PBMCs, 24 h, DMSO = 1.0, read-out: Fold Change IL-2; for fold induction at 5 µM: compound concentration 5 μM; for fold induction at 10 µM: compound concentration 10 μM
Experimental: FIGS. 4 and 9D are graphs showing anti-CD3-induced IL-2 secretion in PBMCs. 1 ug/mL anti-CD3 (OKT-3) antibody in PBS were coated onto 96-well plates overnight at 4° C. Approximately 550,000 PBMCs were added to each well, followed by addition of DMSO only, Compound 1-8 at 10 μM (FIG. 4) or Compound 9 at 0.1 μM or 1 μM (FIG. 9D), or 10 μM lenalidomide (rev). Induction was measured after 24 h as fold difference from the DMSO stimulated control.
For the IL-2 analysis, 96 well plates were precoated with 1 ug/mL anti-human CD3 antibody (OKT3, eBioscience Inc.). After washing with PBS, compounds were added to the wells (50 μL/well) followed by PBMCs diluted at 3-4 million cells/mL (150 μL/well). Plates were incubated for 24 h and the supernatants collected for Mesoscale IL-2 analysis.
Compound activity was measured as fold difference from the DMSO control. IL-1-beta activity is shown in FIG. 1; IL-6 activity is shown in FIG. 2; TNF-α activity is shown in FIG. 3; and IL-2 activity is shown in FIG. 4.

Molm-13 cells = experiment: Molm-13 cell viability (CellTiter-Glo); type: cell-based; details: Homo sapiens, MOLM-13; compound concentration 10 μM; read-out: % Inhibition (MOLM-13 Cell Viability)
Experimental: FIG. 10A is a graph showing antiproliferative activity in H1048 (SCLC) cells. FIG. 10B is a graph showing antiproliferative activity in Molm-13 (AML) cells. In FIGS. 10A and 10B, the cells were incubated for 72 hrs with Compound 9 at the indicated concentrations or DMSO. Compound activity was measured based on the signal from remaining viable cells.
Molm-13 cells were cultivated in RPMI-1640 (10% FBS/1% pen-strep) and were plated in white walled 96-well plates at 20,000 cells/well. H1048 cells were cultured in DMEM:F12 media supplemented with 5% fetal bovine serum, insulin, transferrin, sodium selenite, hydrocortisone, β-estradiol, penicillin and streptomycin, and were plated in white walled 96-well plates at 20,000 cells/well. MDA-MB-231 cells were cultured in DMEM media supplemented with 10% fetal bovine serum, penicillin and streptomycin, and were plated in white walled 96-well plates at 10,000 cells/well. Cells were treated with compound or DMSO (0.1%, control) and the cultures were incubated for 3 days at 37° C. and 5% CO2. Following the incubation period, 100 μL of CellTiterGlow (CTG) reagent (CellTiter-Glo® Luminescent Cell Viability Assay, Promega (Madison, Wis.)) was added to each well. Following a 10 min incubation with shaking, luminescence was measured using a Victor Wallac Luminometer.

Compound `O=C1CCC[C@H](N2Cc3ccsc3C2=O)C(=O)N1` [Compound 1, (S)-3-(6-oxo-4,6-dihydro-5H-thieno[2,3-c]pyrrol-5-yl)azepane-2,7-dione] has an inhibition at 5 µM (IL-1β) of 25%, an inhibition at 5 µM (IL-6) of 0% and an inhibition at 5 µM (TNF-α) of 22%. For the same compound, the fold induction at 5 µM (IL-2) was 0.8 and the cytotoxicity at 10 µM (Molm-13 cells) was 6%.

`O=C1CCC[C@H](N2Cc3sccc3C2=O)C(=O)N1` [Compound 2, (S)-3-(4-oxo-4,6-dihydro-5H-thieno[2,3-c]pyrrol-5-yl)azepane-2,7-dione] gave an inhibition at 5 µM (IL-1β) of 88%, an inhibition at 5 µM (IL-6) of 31% and an inhibition at 5 µM (TNF-α) of 65%. It also gave a fold induction at 5 µM (IL-2) of 1.9 and a cytotoxicity at 10 µM (Molm-13 cells) of 32%.

`O=C1CCC[C@H](N2C(=O)c3ccsc3C2=O)C(=O)N1` [Compound 3, (S)-5-(2,7-dioxoazepan-3-yl)-4H-thieno[2,3-c]pyrrole-4,6(5H)-dione] was tested, and the inhibition at 10 µM (IL-1β) was 0%, the inhibition at 10 µM (IL-6) was 0% and the inhibition at 10 µM (TNF-α) was 0%. The fold induction at 10 µM (IL-2) was 0.9 and the cytotoxicity at 10 µM (Molm-13 cells) was 0%.

With `O=C1NCCCC[C@@H]1N1Cc2sccc2C1=O` [Compound 4, (S)-5-(2-oxoazepan-3-yl)-5,6-dihydro-4H-thieno[2,3-c]pyrrol-4-one] the inhibition at 10 µM (IL-1β) was 0%, the inhibition at 10 µM (IL-6) was 0% and the inhibition at 10 µM (TNF-α) was 0%. The fold induction at 10 µM (IL-2) was 0.7 and the cytotoxicity at 10 µM (Molm-13 cells) was 0%.

`O=C1CCC[C@@H](N2Cc3sccc3C2=O)C(=O)N1` [Compound 5, (R)-3-(4-oxo-4,6-dihydro-5H-thieno[2,3-c]pyrrol-5-yl)azepane-2,7-dione] was tested, and the inhibition at 10 µM (IL-1β) was 0%, the inhibition at 10 µM (IL-6) was 1% and the inhibition at 10 µM (TNF-α) was 0%. For the same compound, the fold induction at 10 µM (IL-2) was 1.4 and the cytotoxicity at 10 µM (Molm-13 cells) was 24%.

Compound `O=C1C[C@H](N2Cc3sccc3C2=O)C(=O)N1` [Compound 6, (S)-3-(4-oxo-4,6-dihydro-5H-thieno[2,3-c]pyrrol-5-yl)pyrrolidine-2,5-dione] has an inhibition at 10 µM (IL-1β) of 14%, an inhibition at 10 µM (IL-6) of 8% and an inhibition at 10 µM (TNF-α) of 16%. The fold induction at 10 µM (IL-2) was 1 and the cytotoxicity at 10 µM (Molm-13 cells) was 0%.

`O=C1CCC[C@H](N2Cc3cscc3C2=O)C(=O)N1` [Compound 7, (S)-3-(4-oxo-4H-thieno[3,4-c]pyrrol-5(6H)-yl)azepane-2,7-dione] showed an inhibition at 10 µM (IL-1β) of 60%, an inhibition at 10 µM (IL-6) of 47% and an inhibition at 10 µM (TNF-α) of 41%. It also gave a fold induction at 10 µM (IL-2) of 1.7 and a cytotoxicity at 10 µM (Molm-13 cells) of 24%.

With `Cc1scc2c1CN([C@H]1CCCC(=O)NC1=O)C2=O` [Compound 8, (S)-3-(1-methyl-4-oxo-4H-thieno[3,4-c]pyrrol-5(6H)-yl)azepane-2,7-dione] the inhibition at 10 µM (IL-1β) was 80%, the inhibition at 10 µM (IL-6) was 71% and the inhibition at 10 µM (TNF-α) was 71%. It also gave a fold induction at 10 µM (IL-2) of 1 and a cytotoxicity at 10 µM (Molm-13 cells) of 42%.

For `O=C1CCC[C@H](N2Cc3c(csc3C3CCCC3)C2=O)C(=O)N1` [Compound 10, (S)-3-(1-Cyclopentyl-4-oxo-4H-thieno[3,4-c]pyrrol-5(6H)-yl)azepane-2,7-dione], the inhibition at 10 µM (IL-1β) was 21%, the inhibition at 10 µM (IL-6) was 13% and the inhibition at 10 µM (TNF-α) was 37%. It also gave a fold induction at 10 µM (IL-2) of 0.6 and a cytotoxicity at 10 µM (Molm-13 cells) of 18%.

Compound `Cc1cc2c(s1)CN([C@H]1CCCC(=O)NC1=O)C2=O` [Compound 11, (S)-3-(2-Methyl-4-oxo-4,6-dihydro-5H-thieno[2,3-c]pyrrol-5-yl)azepane-2,7-dione] has an inhibition at 10 µM (IL-1β) of 65%, an inhibition at 10 µM (IL-6) of 26% and an inhibition at 10 µM (TNF-α) of 46%. For the same compound, the fold induction at 10 µM (IL-2) was 2.6 and the cytotoxicity at 10 µM (Molm-13 cells) was 18%.

`CC(C)c1scc2c1CN([C@H]1CCCC(=O)NC1=O)C2=O` [Compound 12, (S)-3-(1-Isopropyl-4-oxo-4H-thieno[3,4-c]pyrrol-5(6H)-yl)azepane-2,7-dione] was tested, and the inhibition at 10 µM (IL-1β) was 52%, the inhibition at 10 µM (IL-6) was 0% and the inhibition at 10 µM (TNF-α) was 56%. For the same compound, the fold induction at 10 µM (IL-2) was 0.8 and the cytotoxicity at 10 µM (Molm-13 cells) was 31%.

For `O=C1CCC[C@H](N2Cc3c(csc3Br)C2=O)C(=O)N1` [Compound 13, (S)-3-(1-Bromo-4-oxo-4H-thieno[3,4-c]pyrrol-5(6H)-yl)azepane-2,7-dione], the inhibition at 10 µM (IL-1β) was 90%, the inhibition at 10 µM (IL-6) was 66% and the inhibition at 10 µM (TNF-α) was 84%. The fold induction at 10 µM (IL-2) was 1.2 and the cytotoxicity at 10 µM (Molm-13 cells) was 0%.

Work on `O=C1CCC[C@H](N2Cc3sc(Br)cc3C2=O)C(=O)N1` [Compound 14, (S)-3-(2-Bromo-4-oxo-4,6-dihydro-5H-thieno[2,3-c]pyrrol-5-yl)azepane-2,7-dione] yielded an inhibition at 10 µM (IL-1β) of 88%, an inhibition at 10 µM (IL-6) of 65% and an inhibition at 10 µM (TNF-α) of 85%. It also gave a fold induction at 10 µM (IL-2) of 1.5 and a cytotoxicity at 10 µM (Molm-13 cells) of 0%.

`O=C1CCC[C@H](N2C(=O)c3csc([N+](=O)[O-])c3C2=O)C(=O)N1` [Compound 15, (S)-5-(2,7-Dioxoazepan-3-yl)-1-nitro-4H-thieno[3,4-c]pyrrole-4,6(5H)-dione] showed an inhibition at 10 µM (IL-1β) of 67%, an inhibition at 10 µM (IL-6) of 56% and an inhibition at 10 µM (TNF-α) of 55%. For the same compound, the fold induction at 10 µM (IL-2) was 0.7 and the cytotoxicity at 10 µM (Molm-13 cells) was 19%.

With `Nc1scc2c1C(=O)N([C@H]1CCCC(=O)NC1=O)C2=O` [Compound 16, (S)-1-Amino-5-(2,7-dioxoazepan-3-yl)-4H-thieno[3,4-c]pyrrole-4,6(5H)-dione] the inhibition at 10 µM (IL-1β) was 80%, the inhibition at 10 µM (IL-6) was 51% and the inhibition at 10 µM (TNF-α) was 78%. The fold induction at 10 µM (IL-2) was 2.2 and the cytotoxicity at 10 µM (Molm-13 cells) was 23%.

For `N#Cc1scc2c1CN([C@H]1CCCC(=O)NC1=O)C2=O` [Compound 17, (S)-5-(2,7-Dioxoazepan-3-yl)-4-oxo-5,6-dihydro-4H-thieno[3,4-c]pyrrole-1-carbonitrile], the inhibition at 10 µM (IL-1β) was 4%, the inhibition at 10 µM (IL-6) was 14% and the inhibition at 10 µM (TNF-α) was 26%. The fold induction at 10 µM (IL-2) was 1 and the cytotoxicity at 10 µM (Molm-13 cells) was 21%.

For `NCc1scc2c1CN([C@H]1CCCC(=O)NC1=O)C2=O` [Compound 18, (S)-3-(1-(Aminomethyl)-4-oxo-4H-thieno[3,4-c]pyrrol-5(6H)-yl)azepane-2,7-dione 2,2,2-trifluoroacetic Acid Salt], the inhibition at 10 µM (IL-1β) was 36%, the inhibition at 10 µM (IL-6) was 32% and the inhibition at 10 µM (TNF-α) was 48%. For the same compound, the fold induction at 10 µM (IL-2) was 0.9 and the cytotoxicity at 10 µM (Molm-13 cells) was 3%.

Compound `O=C1CCC[C@H](N2Cc3c(csc3C(F)F)C2=O)C(=O)N1` [Compound 19, (S)-3-(1-(Difluoromethyl)-4-oxo-4H-thieno[3,4-c]pyrrol-5(6H)-yl)azepane-2,7-dione] has an inhibition at 10 µM (IL-1β) of 79%, an inhibition at 10 µM (IL-6) of 78% and an inhibition at 10 µM (TNF-α) of 59%. It also gave a fold induction at 10 µM (IL-2) of 4 and a cytotoxicity at 10 µM (Molm-13 cells) of 29%.
